One test deals with CDK9/Cyclin T1 (Homo sapiens, UniProt P50750). The test can be described thus: biochemical kinase IC50.
A further test deals with CDK9 (Homo sapiens, UniProt P50750). The test can be described thus: competition rescue of CDK9 degradation in MOLT-4 cells. The format is cell-based.
CDK9, sequence (P50750 whole entry): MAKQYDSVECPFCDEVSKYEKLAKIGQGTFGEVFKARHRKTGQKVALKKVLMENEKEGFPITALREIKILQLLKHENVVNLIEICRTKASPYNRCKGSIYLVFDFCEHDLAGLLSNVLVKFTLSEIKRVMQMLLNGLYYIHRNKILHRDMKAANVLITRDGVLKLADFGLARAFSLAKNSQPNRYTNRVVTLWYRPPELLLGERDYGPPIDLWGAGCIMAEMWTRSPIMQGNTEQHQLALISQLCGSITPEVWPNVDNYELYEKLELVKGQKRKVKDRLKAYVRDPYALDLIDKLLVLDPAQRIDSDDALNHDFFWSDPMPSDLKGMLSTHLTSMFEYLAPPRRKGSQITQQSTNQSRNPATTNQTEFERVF

CDK9/Cyclin T1, sequence (P50750 whole entry): as above
CDK9/Cyclin T1, sequence (O60563 whole entry partner): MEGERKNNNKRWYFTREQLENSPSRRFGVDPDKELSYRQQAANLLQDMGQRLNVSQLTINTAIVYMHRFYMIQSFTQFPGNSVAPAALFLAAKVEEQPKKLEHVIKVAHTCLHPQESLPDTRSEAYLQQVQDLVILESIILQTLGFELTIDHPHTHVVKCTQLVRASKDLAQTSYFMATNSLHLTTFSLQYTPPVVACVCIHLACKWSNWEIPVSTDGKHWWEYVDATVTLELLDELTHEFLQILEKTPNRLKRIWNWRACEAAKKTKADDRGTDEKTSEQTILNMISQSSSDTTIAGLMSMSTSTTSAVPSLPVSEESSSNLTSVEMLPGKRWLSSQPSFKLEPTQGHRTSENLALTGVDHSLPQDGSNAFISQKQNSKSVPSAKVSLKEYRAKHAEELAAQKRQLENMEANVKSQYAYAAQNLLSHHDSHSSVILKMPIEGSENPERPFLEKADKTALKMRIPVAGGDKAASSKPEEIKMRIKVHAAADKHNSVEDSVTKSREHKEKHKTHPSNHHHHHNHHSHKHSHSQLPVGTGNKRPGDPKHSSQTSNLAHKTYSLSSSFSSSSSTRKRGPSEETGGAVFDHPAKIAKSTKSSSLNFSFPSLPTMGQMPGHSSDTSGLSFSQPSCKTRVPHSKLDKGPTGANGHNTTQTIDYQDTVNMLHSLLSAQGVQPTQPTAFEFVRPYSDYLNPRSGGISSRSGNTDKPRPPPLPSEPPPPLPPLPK

The compound `CCCc1cc(N[C@@H]2CC[C@@H](NC(=O)c3ccc(CN4CCN(c5ccc6c(c5)CN(C5CCC(=O)NC5=O)C6=O)CC4)cc3)C2)n2nccc2n1` (stereo partly drawn) [KI-CDK9d-32, 4-((4-(2-(2,6-dioxopiperidin-3-yl)-1-oxoisoindolin-5-yl)piperazin-1-yl)methyl)-N-((1R,3R)-3-((5-propylpyrazolo[1,5-a]pyrimidin-7-yl)amino)cyclopentyl)benzamide] had an IC50 on CDK9/Cyclin T1 of 3 nM.
With `CCCc1cc(N[C@@H]2CC[C@@H](NC(=O)c3ccc(CN4CCN(c5ccc6c(c5)CN(C5CCC(=O)N(C)C5=O)C6=O)CC4)cc3)C2)n2nccc2n1` (stereo partly drawn) [KI-CDK9d-32N, 4-((4-(2-(1-methyl-2,6-dioxopiperidin-3-yl)-1-oxoisoindolin-5-yl)piperazin-1-yl)methyl)-N-((1R,3R)-3-((5-propylpyrazolo[1,5-a]pyrimidin-7-yl)amino)cyclopentyl)benzamide], the “competition rescue of CDK9 degradation in MOLT-4 cells (Western blot, 5 uM)” value on CDK9 is on record as “rescued through co-treatments with excess KB-0742, pomalidomide, or KI-CDK9d-32N, a negative control PROTAC with impaired CRBN binding”.

The values are drawn from PMC12042413 (Cell chemical biology, 2025).
